From patent publication US12172983B2, “EGFR inhibitors” (Blueprint Medicines Corporation, priority 2019, dated 2024)
pIC50: −log10 of the molar value. Each block holds one molecule with its values, some of them ahead of it.

Legend:
EGFR (L858R T790M C797S) = target: T1, EGFR (L858R T790M C797S) (Homo sapiens, UniProt P00533, C797S/L858R/T790M); assay: Biochemical EGFR inhibition assay (Caliper mobility shift), EGFR LRTMCS mutant; conditions: inhibitory activity against EGFR LRTMCS mutant; apparent IC50; read-out: Ext Enz LRTMCS
T1 construct: purchased SignalChem E10-122VG
T1 sequence (P00533 25-1210 T790M/C797S/L858R): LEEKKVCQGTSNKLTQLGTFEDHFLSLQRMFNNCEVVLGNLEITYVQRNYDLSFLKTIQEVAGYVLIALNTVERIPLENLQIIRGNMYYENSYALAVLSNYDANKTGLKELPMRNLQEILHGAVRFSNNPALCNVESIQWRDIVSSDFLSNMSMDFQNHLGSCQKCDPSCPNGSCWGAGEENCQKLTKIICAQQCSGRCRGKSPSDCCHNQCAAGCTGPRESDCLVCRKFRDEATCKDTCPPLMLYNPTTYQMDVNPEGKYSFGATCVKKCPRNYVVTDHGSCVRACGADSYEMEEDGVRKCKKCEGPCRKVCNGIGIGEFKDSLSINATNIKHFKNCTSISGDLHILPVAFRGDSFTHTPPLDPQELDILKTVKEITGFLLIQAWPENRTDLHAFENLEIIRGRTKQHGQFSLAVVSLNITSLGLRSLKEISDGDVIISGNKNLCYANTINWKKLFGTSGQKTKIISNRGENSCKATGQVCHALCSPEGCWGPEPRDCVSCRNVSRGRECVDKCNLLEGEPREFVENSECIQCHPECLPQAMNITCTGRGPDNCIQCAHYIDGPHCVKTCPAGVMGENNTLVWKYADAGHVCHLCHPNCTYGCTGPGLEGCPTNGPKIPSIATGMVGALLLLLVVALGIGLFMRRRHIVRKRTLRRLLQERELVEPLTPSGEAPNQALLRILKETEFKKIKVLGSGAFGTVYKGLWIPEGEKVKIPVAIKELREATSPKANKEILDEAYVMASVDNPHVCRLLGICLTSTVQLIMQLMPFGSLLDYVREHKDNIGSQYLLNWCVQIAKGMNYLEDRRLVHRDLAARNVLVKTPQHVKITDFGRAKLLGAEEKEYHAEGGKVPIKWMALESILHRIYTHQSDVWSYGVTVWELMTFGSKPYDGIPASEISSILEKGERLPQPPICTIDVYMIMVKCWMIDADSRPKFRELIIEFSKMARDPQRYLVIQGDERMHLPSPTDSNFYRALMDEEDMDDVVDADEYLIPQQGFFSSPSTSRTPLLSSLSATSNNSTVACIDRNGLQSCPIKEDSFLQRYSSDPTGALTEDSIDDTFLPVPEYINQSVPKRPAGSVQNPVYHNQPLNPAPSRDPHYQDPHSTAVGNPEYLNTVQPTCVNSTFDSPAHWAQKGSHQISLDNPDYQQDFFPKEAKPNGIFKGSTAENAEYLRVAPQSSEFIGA
Outline: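 Each enzyme was allowed to phosphorylate 10–20% of its peptide at 25° C. before EDTA (35 mM) quench. Separated substrate and product peaks were measured by mobility shift, giving apparent IC50 values.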

[1] = system: phosphorylation of EGFR (Tyr1068) in NCI-H1975 cell line that harbors the EGFR L858R T790M mutations; assay: NCI-H1975 pEGFR AlphaLISA assay; assay type: cell-based; conditions: Homo sapiens, NCI-H1975, inhibition of phosphorylation of mutant EGFR in NCI-H1975 cells; 4-5 hours incubation; read-out: Ext pEGFR H1975
Outline: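 Phospho-EGFR Tyr1068 AlphaLISA readout: lysates taken from compound-treated H1975 cells (L858R T790M EGFR) after a 4-5 h exposure at 37 °C. Cells had adhered overnight beforehand. IC50 derived by plotting % pEGFR inhibition against log compound concentration.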

pIC50 (EGFR (L858R T790M C797S)): ≥ 7.82
pIC50 [1]: ≥ 8.00
SMILES: CCS(=O)(=O)C[C@H]1CN(c2ccc(C(C)C)c3cc(Nc4cnnc(N5CC[C@H](OC)[C@H](F)C5)n4)ncc23)[C@@H]1C [Compound 289, 8-[(2R,3S)-3-[(ethanesulfonyl)methyl]-2-methylazetidin-1-yl]-N-{3-[(3R,4S)-3-fluoro-4-methoxypiperidin-1-yl]-1,2,4-triazin-5-yl}-5-(propan-2-yl)isoquinolin-3-amine]

pIC50 (EGFR (L858R T790M C797S)): ≥ 7.82
pIC50 [1]: ≥ 8.00
SMILES: COCCO[C@H]1CCN(c2nccc(Nc3cc4c(C(C)C)ccc(N5C[C@H](CS(C)(=O)=O)[C@H]5C)c4cn3)n2)C[C@H]1F (single isomer, unassigned) [Compound 246]

pIC50 (EGFR (L858R T790M C797S)): ≥ 7.82
pIC50 [1]: ≥ 8.00
SMILES: CCS(=O)(=O)C[C@H]1CN(c2ncc(C(C)C)c3cc(Nc4ccnc(N5CC[C@@](C)(O)[C@@H](F)C5)n4)ncc23)[C@@H]1C (single isomer, unassigned) [Compound 190]

pIC50 (EGFR (L858R T790M C797S)): ≥ 7.82
pIC50 [1]: 7.30 to 7.52
SMILES: COC1(CCN)CCN(c2nccc(Nc3cc4c(C(C)C)ccc(N5C[C@H](CS(C)(=O)=O)[C@H]5C)c4cn3)n2)CC1 [Compound 221, N-{2-[4-(2-aminoethyl)-4-methoxypiperidin-1-yl]pyrimidin-4-yl}-8-[(2R,3S)-3-(methanesulfonylmethyl)-2-methylazetidin-1-yl]-5-(propan-2-yl)isoquinolin-3-amine]

The next lines start with the molecule.

SMILES: CC(C)c1ccc(N2CC(CS(C)(=O)=O)C2)c2cnc(Nc3ccnc(N4CC[C@@](F)([C@@H](C)O)C4)n3)cc12 (single isomer, unassigned) [Compound 59, (1R)-1-[(3S)-3-fluoro-1-[4-({8-[3-(methanesulfonylmethyl)azetidin-1-yl]-5-(propan-2-yl)isoquinolin-3-yl}amino)pyrimidin-2-yl]pyrrolidin-3-yl]ethan-1-ol or (1S)-1-[(3R)-3-fluoro-1-[4-({8-[3-(methanesulfonylmethyl)azetidin-1-yl]-5-(propan-2-yl)isoquinolin-3-yl}amino)pyrimidin-2-yl]pyrrolidin-3-yl]ethan-1-ol]
pIC50 (EGFR (L858R T790M C797S)): ≥ 7.82
pIC50 [1]: 7.70 to 8.00

SMILES: CC1(C)CN(c2nccc(Nc3cc4ccnc(N5CC(CS(C)(=O)=O)C5)c4cn3)n2)C[C@@H](F)[C@H]1O (single isomer, unassigned) [Compound 6, (4S,5R)-5-fluoro-1-[4-({8-[3-(methanesulfonylmethyl)azetidin-1-yl]-2,7-naphthyridin-3-yl}amino)pyrimidin-2-yl]-3,3-dimethylpiperidin-4-ol or (4R,5S)-5-fluoro-1-[4-({8-[3-(methanesulfonylmethyl)azetidin-1-yl]-2,7-naphthyridin-3-yl}amino)pyrimidin-2-yl]-3,3-dimethylpiperidin-4-ol]
pIC50 (EGFR (L858R T790M C797S)): ≥ 7.82
pIC50 [1]: 7.52 to 7.70

SMILES: CC(C)c1nnc(N2CC(CS(C)(=O)=O)C2)c2cnc(Nc3ccnc(N4CC[C@]5(CCO5)C(F)(F)C4)n3)cc12 (single isomer, unassigned) [Compound 209, (S)-N-(2-(5,5-difluoro-1-oxa-7-azaspiro[3.5]nonan-7-yl)pyrimidin-4-yl)-1-isopropyl-4-(3-((methylsulfonyl)methyl)azetidin-1-yl)pyrido[3,4-d]pyridazin-7-amine or (R)-N-(2-(5,5-difluoro-1-oxa-7-azaspiro[3.5]nonan-7-yl)pyrimidin-4-yl)-1-isopropyl-4-(3-((methylsulfonyl)methyl)azetidin-1-yl)pyrido[3,4-d]pyridazin-7-amine]
pIC50 (EGFR (L858R T790M C797S)): ≥ 7.82
pIC50 [1]: 7.30 to 7.52

SMILES: CCS(=O)(=O)C[C@H]1CN(c2ncc(C(C)C)c3cc(Nc4ccnc(N5CC[C@H](OCCO)[C@H](F)C5)n4)ncc23)[C@@H]1C [Compound 250, 2-{[(3R,4S)-1-[4-({8-[(2R,3S)-3-[(ethanesulfonyl)methyl]-2-methylazetidin-1-yl]-5-(propan-2-yl)-2,7-naphthyridin-3-yl}amino)pyrimidin-2-yl]-3-fluoropiperidin-4-yl]oxy}ethan-1-ol]
pIC50 (EGFR (L858R T790M C797S)): ≥ 7.82
pIC50 [1]: ≥ 8.00
